Assay in all cases: DTP human tumour cell line panel, 48 h
Test [1] relates to SW-620 colon.
In test [2] the test system is NCI-H460 lung.
For test [3], the system named is HS 578T breast.
Test [4] concerns UACC-62 melanoma.
Test [5] relates to BT-549 breast.
Test [6] has as its system CCRF-CEM leukemia.
Test [7] concerns A549 NSCLC.
Test [8] relates to K-562 leukemia.
In test [9] the test system is CAKI-1 renal.
In test [10] the test system is MDA-MB-435.

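Where inhibition never reached the appropriate level, the endpoint shown equals the highest concentration tested. Otherwise, values were interpolated linearly from a five-concentration, 48-hour dose response in 96-well plates. GI50 = concentration required for 50% inhibition of growth. TGI marks complete inhibition of growth.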

Regarding `COC(=O)/C=C/c1cc(OC)c2c(c1)[C@@H](C(=O)OC)[C@H](c1ccc(OC)c(OC)c1)O2`, the GI50 was 0.561 µM in test [1]; 3.9 µM in [2]; 1.7 µM in [3]; 0.972 µM in test [4]; 4.88 µM in test [5]; 0.983 µM in test [6]. Also, the GI50 in [7] was 11.2 µM. Further, the TGI in test [1], in [2], in [3], in test [4], in [5] and in test [6] was over 100 µM throughout. The compound further returned a total growth inhibition concentration (TGI) in [7] of over 100 µM.
For the compound `COc1cc(/C=C/C(=O)c2ccc(SC)cc2)cc(OC)c1OC`, the GI50 in test [8] is 3.2 µM; in test [1], 6.89 µM; in test [9], 16.1 µM; in test [2] it was 15 µM; in [3] it was 12.3 µM; in test [4], 3.46 µM. The GI50 in test [10] was 12.4 µM; in [5] it was 10.1 µM; in test [6] it was 3.37 µM; in [7], 6.25 µM. Further, the concentration for total growth inhibition (TGI) in test [8] was 16.4 µM; in [1], 21.6 µM; in test [9], 32.2 µM; in [2] it was 32.6 µM; in test [3] it was 37 µM; in [4] it was 13.5 µM. Besides, the concentration for total growth inhibition (TGI) stood at 25.8 µM in [10], 24.6 µM in test [5], 21.1 µM in test [6] and 20.7 µM in [7].
Take `C=C(C=O)[C@@H]1CC=C(C=O)CC1`: the GI50 in test [8] was 1.7 µM; in test [9], 29.1 µM; in [2], 13.8 µM; in test [3] it was 3.36 µM; in test [4], 3.14 µM; in test [10] it was 4.21 µM. Also, the GI50 was 3.26 µM in test [5] and 35.1 µM in test [7]. Further, the concentration for total growth inhibition (TGI) in test [8] was over 100 µM; in test [9], over 100 µM; in test [2], over 77.2 µM; in [3], 42.4 µM; in [4], 12.2 µM; in test [10], 74.3 µM. Further, the TGI in [5] was over 30.5 µM; in test [7], over 91.7 µM.
With `COc1ccc2nc3c(cc2c1)C(=O)CC(C(F)(F)F)C3` (stereo not given), the 50% growth inhibitory concentration (GI50) in [8] was 0.406 µM; in test [1], 2.68 µM; in test [9], 0.639 µM; in test [2], 1.87 µM; in test [3], 2.19 µM; in [4], 0.602 µM. The GI50 in test [5] was 3.1 µM; in test [6], 0.223 µM; in test [7], 2.48 µM. The TGI in [8], in test [1], in test [9], in [2], in [3] and in [4] was over 100 µM throughout. Moreover, the TGI in [5], in test [6] and in [7] was over 100 µM each time.
With `Nc1c(C(=O)Nc2cccc3ccccc23)sc2nc3c(cc12)CCCCCC3`, the GI50 in test [8] was 0.301 µM; in test [1] it was 1.45 µM; in test [2], 1.76 µM; in [3] it was 1.59 µM; in test [4], 1.62 µM; in test [5], 0.954 µM. The GI50 is 1.65 µM in test [6] and 2.54 µM in test [7]. For the same compound, the TGI is over 50 µM in test [8]; over 50 µM in test [1]; over 50 µM in [2]; over 50 µM in test [3]; over 50 µM in test [4]; 4.81 µM in test [5]. Besides, the TGI in test [6] and in test [7] was over 50 µM throughout.
Take `c1ccc2c(c1)-c1nc3ccccc3cc1C2N1CCOCC1` (stereo not given): the concentration for total growth inhibition (TGI) in test [8], in test [1], in [9], in test [3], in test [4] and in test [10] was over 100 µM each time. The TGI in test [5], in test [6] and in test [7] was over 100 µM each time.
Consider `Nc1c2c(c(O)c3c1=C(CO)C=N3)=NCCS2=O` (stereo not given), for which the GI50 is 2.81 µM in test [8]; 2.1 µM in test [1]; 0.649 µM in test [2]; 2.78 µM in test [3]; 1.71 µM in test [4]; 1.86 µM in [10]. Moreover, the results for the GI50 in test [5], in [6] and in test [7] were 1.69 µM, 1.65 µM and 1.72 µM, respectively. Further, the TGI is 8.07 µM in test [8]; 4.22 µM in test [1]; 2.31 µM in [2]; 7.9 µM in [3]; 3.39 µM in [4]; 3.41 µM in test [10]. Further, the figures for the concentration for total growth inhibition (TGI) in test [5], in test [6] and in test [7] were 3.1 µM, 13.2 µM and 3.55 µM, respectively.
Turning to `O=c1c(-c2nc3ccccc3[nH]2)cc2ccccc2n1Cc1cn(Cc2ccc(F)cc2)nn1`, the GI50 in [8] was 0.0609 µM; in test [1] it was 0.0672 µM; in [9], 0.246 µM; in [2], 0.0435 µM; in test [3], 0.0546 µM; in test [4], 0.437 µM. The GI50 was 0.164 µM in [5], 0.135 µM in test [6] and 0.116 µM in test [7]. For the same compound, the TGI in test [8] is over 100 µM; in test [1] it was over 100 µM; in test [9], over 100 µM; in test [2] it was over 100 µM; in [3], 1.18 µM; in [4] it was 50.7 µM. In addition, the TGI in [5] was over 40.5 µM; in test [6] it was over 100 µM; in test [7] it was over 100 µM.
As to `CC(=O)O[C@H]1CC[C@@]2(C)[C@@H](CC[C@@H]3[C@@H]2CC(=O)[C@@]2(C)[C@H]3C[C@@H]3CC(C)=CC(=O)[C@@H]32)C1`, the TGI is over 100 µM in test [8]; over 100 µM in test [1]; over 100 µM in test [9]; 80.3 µM in test [3]; over 100 µM in test [4]; over 100 µM in test [10]. Further, the TGI in test [5] is 71.2 µM; in test [6], over 100 µM; in [7], over 100 µM.
For `C/C(=N\O)c1ccc(Nc2cc(-c3ccccc3)nc3c(O)cccc23)cc1`, the GI50 in [8] is 15.2 µM; in [1] it was 13.9 µM; in test [9], 10.2 µM; in test [3], 15.9 µM; in [4] it was 13.4 µM; in test [10], 6.72 µM. For the same compound, the figures for the GI50 in [5], in test [6] and in [7] were 23.3 µM, 3.51 µM and 10.2 µM, respectively. For the same compound, the TGI is 97.6 µM in test [8]; 34.2 µM in test [1]; 35 µM in [9]; 62.4 µM in [3]; 27.1 µM in test [4]; 26.6 µM in test [10]. The TGI is 86.6 µM in [5], 14.8 µM in [6] and 31 µM in test [7].
`CCCCCCCCCCCC(=O)[O][Sn]([CH2]CCC)([CH2]CCC)[CH2]CCC`: the GI50 was 0.0364 µM in test [8]; 0.0419 µM in test [1]; 0.0965 µM in [9]; 0.0438 µM in test [2]; 0.0549 µM in [3]; 0.0515 µM in [4]. The GI50 in test [10] is 0.0553 µM; in test [5], 0.0623 µM; in test [7] it was 0.055 µM. The TGI in test [8] came to 0.286 µM; in [1], 0.138 µM; in [9] it was 0.216 µM; in test [2], 0.156 µM; in test [3], 0.296 µM; in test [4], 0.11 µM. The TGI came to 0.15 µM in [10], 0.184 µM in test [5] and 0.185 µM in [7].
As to `Cc1cc(=O)[nH]c2c1C(=O)C(=O)C=C2`, the GI50 in test [8] is 34.3 µM; in test [1], 24.7 µM; in [9], 19.4 µM; in test [2], 27.1 µM; in [3] it was 40.4 µM; in [4] it was 36.4 µM. Further, the GI50 in test [10] is 15.1 µM; in test [5] it was 57.8 µM; in test [7] it was 81.9 µM. Moreover, the total growth inhibition concentration (TGI) in [8] was over 100 µM; in [1] it was 67.8 µM; in test [9] it was 37.4 µM; in test [2], 74 µM; in test [3], over 100 µM; in test [4], over 100 µM. Further, the TGI in test [10] was 33.2 µM; in test [5] it was over 100 µM; in test [7], over 100 µM.
`Clc1ccc2c(NCCCNCc3ccc4c(c3)OCO4)ccnc2c1`: the GI50 is 2.19 µM in [8]; 2.96 µM in [1]; 3.61 µM in test [2]; 2.99 µM in test [3]; 2.02 µM in [4]; 1.68 µM in [10]. The GI50 in [5] was 4.47 µM; in [6] it was 4.62 µM; in test [7], 9.47 µM. Besides, the TGI in test [8] came to 7.63 µM; in [1], 11.1 µM; in test [2], 12.1 µM; in test [3], 11.1 µM; in [4], 3.89 µM; in [10], 3.29 µM. The TGI is 17.7 µM in test [5], 19.3 µM in test [6] and 22.8 µM in test [7].

The GI50 is the concentration giving 50% growth inhibition. As usually defined, the TGI is the concentration giving total growth inhibition.

Values taken from PubChem BioAssay (NCI).
